Source: BindingDB's records for doi:10.1021/jm020562o (University of Vermont, 2003)

Assay: Binding affinity was determined against Opioid receptor delta 1 from guinea pig brain membranes

## COCC[C@H]1CC2CN3CCc4c([nH]c5ccccc45)[C@](C(=O)OC)(C2)C13 [18-methoxycoronaridine]
  Ki: 3.5 µM
